Test results: patent publication US12215106B2, “Pharmaceutical compounds and therapeutic methods” (RUTGERS, THE STATE UNIVERSITY OF NEW JERSEY, priority 2018, dated 2025)

Experiments:
mice plasma = experiment: in vitro; format: in vitro ADME; details: mouse, plasma, 4 h, 5 μM
Experimental: (§1) The objective of this study was to evaluate protein binding test compounds in mice plasma. This was accomplished by spiking the test compounds at a concentration of 5 μM into mice plasma and dialyzing against buffer until equilibrium is achieved (4 hours). Analyte area ratios of the test compounds in plasma and buffer were determined to calculate unbound and bound percentages of compound to the plasma proteins.
(§2) Phosphate buffered saline pack (0.1 M sodium phosphate and 0.15 M sodium chloride, pH 7.2) was dissolved in 500 mL of deionized water and pH was adjusted to 7.4 with 0.5 N NaOH.
(§3) 1 mM stock solutions were prepared in DMSO and diluted 200-folds in mice plasma to prepare a concentration of 5 μM. The final DMSO concentration in plasma was 0.5%.
(§4) Rapid equilibrium dialysis was performed with a rapid equilibrium dialysis (RED) device containing dialysis membrane with a molecular weight cut-off of 8,000 Daltons. Each dialysis insert contains two chambers. The red chamber is for plasma while the white chamber is for buffer.
(§5) A 200 μL aliquot of warfarin and test compound at 5 (triplicates) were separately added to the plasma chamber and 350 μL of phosphate buffer saline (pH 7.4) was added to the buffer chamber of the inserts. After sealing the RED device with an adhesive film, dialysis was performed in incubator at 37° C. with shaking at 100 RPM for 4 hours.
(§6) A 50 μL aliquot of warfarin and test compounds were added to four 0.5 mL microfuse tubes. Two aliquots were frozen immediately (0 minute sample). The other two aliquots were incubated at 37° C. for 4 hours along with the RED device.
(§7) Following dialysis, an aliquot of 50 μL was removed from each well (both plasma and buffer side) and diluted with equal volume of opposite matrix (dialyzed with the other matrix) to nullify the matrix effect. Similarly, 50 μL of buffer was added to recovery and stability samples. An aliquot of 100 μL was submitted for LCMS/MS analysis.
(§8) A 25 μL aliquot of warfarin and test compounds were crashed with 100 μL of acetonitrile containing internal standard (glipizide) and vortexed for 5 minutes. The samples were centrifuged at 4000 RPM at 4° C. for 10 min and 100 μL of supernatant was submitted for LC-MS/MS analysis. Samples were monitored for parent compound in MRM mode using LC-MS/MS.
(§9) The peak area ratios (analyte versus internal standard) obtained were used to determine the fraction of compound bound to plasma proteins.

in vitro = in vitro ADME, mice; details: mouse; for fraction unbound at 4 h, 5 μM: plasma
Experimental: as §1, §2, §3, §4, §5, §6, §7, §8, §9

P-gp = experiment: Bi-directional Caco-2 transport assay; format: in vitro ADME; details: human, Caco-2; efflux ratio >2: potential P-gp substrate; read-out: Efflux Ratio (B-A/A-B)
Experimental: (§10) The objective of the study is to evaluate test compounds as substrates for efflux transporter using Caco-2 cell line. To assess the functionality of P-glycoprotein (P-gp), loperamide was run as a positive control (Apical and basolateral HBSS pH 7.4).
(§11) 5 mM DMSO stock of test compounds and loperamide was diluted 1000-folds in HBSS having 0.1% DMSO to prepare concentrations of 5 μM.
(§12) Caco-2 cells were grown in DMEM (20% FBS) until 85-90% confluence. After attaining required confluence, cells were trypsinized and seeded into 24 well millcell plates at a density of 0.6×10^5 cells/insert. The plates were maintained for 21 days at 37° C. in CO2 incubator with change of medium every alternative day. Monolayer integrity was monitored by measuring Trans-epithelial electrical resistance (TEER) from day 15.
(§13) Caco-2 cell monolayer was washed twice with HBSS and incubated for 40 min in CO2 incubator. TEER values were measured and wells showing TEER values above 230 ohms·cm^2 were taken for experiments. The study was performed in loperamide and test compounds by adding 400 μL of loperamide prepared in HBSS in apical (A-B transport) followed by addition of 800 μL of HBSS on basal side and for B-A transport 800 μL of loperamide prepared in HBSS was dosed in basal followed by addition of 400 μL HBSS on apical side. At selected time points (0, 15, 30, 60 and 90 mins) an aliquot of 50 μL was collected from the receiver compartment for determination of test compound concentrations. The volume withdrawn was replaced immediately with HBSS buffer. TEER was measured at the end to the experiment to confirm any damage of monolayer while performing experiment. Those wells with TEER not meeting the criteria were excluded from the study.
(§14) A 50 μL of test compound samples collected at respective time points and submitted for LC-MS/MS analysis.
(§15) The apparent permeability (Papp) (A−B & B−A) of test compounds and positive control was calculated using the following formula: Papp=dQ/dt/A·Co where, dQ/dt=linear slope of test compound concentration in receptor chamber with time (0, 15, 30, 60 and 90 min) after correcting for dilution; A=area of the filter (0.7 cm^2); and Co=initial concentration of compound in the donor compartment.
(§16) Efflux ratio (RE) was calculated using the following equation: RE=PB/A/PA/B where PB/A and PA/B represent the apparent permeability of test compound from the basal to apical and apical to basal side of cell monolayer.
(§17) Recovery represents: (amount of the compound recovered from donor at end of incubation+cumulative amount of compound in acceptor at end of incubation+amount of the compound in cell lysate or assay well)/amount of compound in donor solution at time zero*100
(§18) Compounds are classified based on Papp values as follows:
(§19) A compound having efflux ratio of >2 is considered as having potential as a P-gp substrate.

[1] = Bi-directional Caco-2 transport assay; format: in vitro ADME; details: human, Caco-2, 5 μM
Experimental: as §10, §11, §12, §13, §14, §15, §16, §17, §18, §19

Compound	% compound remaining at 4 hrs (mice plasma)	recovery at 4 h, 5 µM (in vitro; Plasma, pH 7.4)	fraction unbound at 4 h, 5 μM (in vitro; pH 7.4, % Bound Mean ± SD)	fraction unbound at 4 h, 5 μM (in vitro; pH 7.4, % Bound R1)	fraction unbound at 4 h, 5 μM (in vitro; pH 7.4, % Bound R2)	fraction unbound at 4 h, 5 μM (in vitro; pH 7.4, % Bound R3)	efflux ratio at 90 min, 5 μM (P-gp)	Papp A→B at 90 min, 5 μM ([1]; HBSS pH 7.4, apical to basal, read-out: Papp (A-B))	Papp B→A at 90 min, 5 μM ([1]; HBSS pH 7.4, basal to apical, read-out: Papp (B-A))
CC(=O)CC(c1ccccc1)c1c(O)c2ccccc2oc1=O (stereo not drawn) [Warfarin, reference compound]	94%	109%	0.069	0.071	0.075	0.062			
CN(C)C(=O)C(CCN1CCC(O)(c2ccc(Cl)cc2)CC1)(c1ccccc1)c1ccccc1 [Loperamide, reference compound]							5.2	1.6 ± 0.2 ×10⁻⁶ cm/s	8.4 ± 1.2 ×10⁻⁶ cm/s
